Results reported in US20180228743A1, “COMPOUNDS AND METHODS OF PROMOTING MYELINATION” (Case Western Reserve University, priority 2016, published 2018).
Structures can show the parent of a compound that is named as a salt. Where two headings read alike, the source gives them in different places.

Columns and labels:
Assay type in all cases: cell-based, mouse
EpiSC-derived OPCs [1] = experiment: In vitro phenotypic screening of OPCs (MBP+ oligodendrocytes at 72 h); settings: 72 h
EpiSC-derived OPCs [2] = experiment: High-throughput screening of 3,000 bioactive small molecules for MBP+ oligodendrocyte formation from OPCs; settings: 72 h; for % 0ligos: MBP+ oligodendrocytes; for fold induction at 2 µM: Mus musculus, read-out: fold-change in % MBP + oligodendrocytes
Source text: Plates were imaged on the Operetta High Content Imaging and Analysis system (PerkinElmer) and a set of 6 fields captured from each well resulting in an average of 1200 cells being scored per well. Analysis (PerkinElmer Harmony and Columbus software) began by identifying intact nuclei stained by DAPI; that is, those traced nuclei that were larger than 300 μm^2 in surface area. Each traced nucleus region was then expanded by 50% and cross-referenced with the […] (MBP) stain to identify oligodendrocyte nuclei, and from this the percentage of oligodendrocytes was calculated. In some experiments, the total process length of MBP+ oligodendrocytes was calculated as previously described.
EpiSC-derived OPCs were grown and expanded in poly-ornithine and laminin-coated flasks before harvesting for plating. Cells were dispensed in differentiation media supplemented with Noggin (R&D Systems; 100 ng/ml), Neurotrophin 3 (R&D Systems; 10 ng/ml), cAMP (Sigma; 50 μM), and IGF-1 (R&D Systems; 100 ng/ml)) using a Biotek EL406 Microplate Washer Dispenser (Biotek) equipped with 5 μL dispense cassette (Biotek), into poly-D-lysine/laminin (Sigma, L2020; 4 μg/ml)-coated sterile, 384-well, CellCarrier ultra plates (PerkinElmer), to a final density of 12,500 cells per well and allowed to attach for 45 min before addition of drug. A 3 mM stock of bioactive compound library in dimethylsulphoxide (DMSO) were prepared in an Abgene storage 384-well plate (ThermoFisher Scientific; AB1055). These were added to assay plates using a 50 nL solid pin tool attached to Janus automated workstation (Perkin Elmer), resulting in a final screening concentration of 2 μM. Cells were incubated at 37° C. for 1 hour and then T3 (Sigma; 40 ng/ml) was added to all wells except negative controls, to which FGF (20 ng/ml) was added instead. Negative controls and T3-alone were included in each assay plate. After incubation at 37° C. for 72 h, cells were fixed, washed and stained similar to 96-well OPC assay protocol, although all the washing steps were performed using a Biotek EL406 Microplate Washer Dispenser (Biotek) equipped with a 96-well aspiration manifold. Cells were stained with DAPI (Sigma; 1 μg/ml) and MBP antibody (Abcam, ab7349; 1:100). Plates were imaged on the Operetta High Content Imaging and Analysis system (PerkinElmer) and a set of 4 fields captured from each well resulting in an average of 700 cells being scored per well. Analysis was performed as in High-Content Imaging and Analysis, above. All plates for the primary screen were processed and analyzed simultaneously to minimize variability. Molecules causing more than 20% reduction in nuclear count relative to DMSO control wells were removed from consideration, and hits were called on the basis of largest fold-increase in percentage of MBP+ oligodendrocytes relative to DMSO controls within the same plate.

OPCs = experiment: GC/MS-based sterol profiling in OPCs; settings: for sterol levels / sterol intermediate accumulation in OPCs: 24 h treatment (siRNA 96 h)
[3] = 2 μM, relative to DMSO controls of the same plate
[4] = 2 μM, hydrochloride monohydrate

Molecule | cell viability (% relative to DMS0) (EpiSC-derived OPCs [2]; 2 μM) | % 0ligos (EpiSC-derived OPCs [2]; 2 μM) | fold induction at 2 µM (EpiSC-derived OPCs [2]; [3]) | other results
CC(C)CCC[C@@H](C)[C@H]1CC=C2C3=C(CC[C@@]21C)[C@@]1(C)CCC(O)CC1CC3 (stereo partly drawn) [14-dehydrozymostenol, cholesta-8,14-dien-3-ol] |  |  |  | formation of MBP+ oligodendrocytes from OPCs (EpiSC-derived OPCs [1]): enhanced the formation of MBP+ oligodendrocytes
c1ccc(-c2ccc(C(c3ccccc3)n3ccnc3)cc2)cc1 (stereo not drawn) [Bifonazole] | 123.69% | 40.98% | 4.59 | 
Clc1ccc(CCC(Cn2ccnc2)Sc2c(Cl)cccc2Cl)cc1 (stereo not drawn) [Butoconazole nitrate] | 122.03% | 46.85% | 5.25 | 
CN1CCC[C@@H]1CCO[C@](C)(c1ccccc1)c1ccc(Cl)cc1 [Clemastine fumarate] |  | 20.49% |  | sterol levels / sterol intermediate accumulation in OPCs (OPCs): induced accumulation of zymostenol and zymosterol and decreased basal sterol levels; oligodendrocyte formation in combination with ketoconazole (EpiSC-derived OPCs [1]; ketoconazole 2.5 μM (maximally effective dose)): did not enhance differentiation above levels seen for ketoconazole alone
Clc1ccc(C(Cn2ccnc2)OCc2ccc(Sc3ccccc3)cc2)c(Cl)c1 (stereo not drawn) [Fenticonazole Nitrate] | 103.63% | 35.66% | 4 | 
C[C@]12CC[C@@H]3c4ccc(O)cc4C[C@@H](CCCCCCCCC[S+]([O-])CCCC(F)(F)C(F)(F)F)[C@H]3[C@@H]1CC[C@@H]2O (stereo partly drawn) [Fulvestrant] | 139.42% | 18.21% | 3.83 | enzyme inhibited in OPCs as indicated by sterol profile (OPCs; 24 h): targeted CYP51
Cl.O[Si](CCCN1CCCCC1)(c1ccc(F)cc1)C1CCCCC1 (stereo not drawn) [Hexahydro-sila-difenidol hydrochloride, p-fluoro analog] |  | 26.76% |  | fold-change in % MBP + oligodendrocytes (EpiSC-derived OPCs [2]; [3]): 3.49
Cl.Clc1ccc(N2CCN(Cc3c[nH]c4ncccc34)CC2)cc1 [L-745,870 hydrochloride] |  | 32.61% |  | 
Cc1cc(Nc2cc(CN3CCOCC3)c3nc(C)c(Cc4ccc(Cl)cc4F)n3n2)n[nH]1 [LY2784544] | 87.93% | 28.75% | 3.62 | 
FC(F)(F)c1ccc(/C=C/c2nc(COc3ccc(CCCCn4ccnn4)cc3)co2)cc1 [Mubritinib (TAK 165), Mubritinib] | 142.71% | 31.45% | 3.95 | 
N=C(N)c1ccc(OCCCCCOc2ccc(C(=N)N)cc2)cc1 [Pentamidine isethionate] | 108.75% | 41.29% | 4.42 | 
CCCCOc1ccc(OCCCN2CCOCC2)cc1 [Pramoxine HCl] | 113.08% | 32.98% | 3.89 | 
O=C(C1CCCCC1)N1CC(=O)N2CCc3ccccc3C2C1 (stereo not drawn) [Praziquantel] | 109.81% | 33.24% | 3.72 | 
CCc1nc(N)nc(N)c1-c1ccc(Cl)cc1 [Pyrimethamine] | 91.11% | 43.87% | 4.92 | 
O=C(c1ccc(OCCN2CCCCC2)cc1)c1c(-c2ccc(O)cc2)sc2cc(O)ccc12 [Raloxifene HCl] |  |  | 4.8 | cell viability (% relative to DMS0) (EpiSC-derived OPCs [2]; 2 μM, HCl): 114.37%; cell viability (% relative to DMS0) (EpiSC-derived OPCs [2]; 2 μM, listed as Raloxifene hydrochloride, HCl): 126.07%
Cc1nnc(C(=O)NC(C)(C)c2nc(C(=O)NCc3ccc(F)cc3)c(O)c(=O)n2C)o1 [Raltegravir (MK-0518), Raltegravir] | 115.85% | 38.02% |  | fold induction at 2 µM (EpiSC-derived OPCs [2]): 4.26
Cc1cc(NC(=O)Nc2ccc(N(C)C)cc2)c2cc(F)cc(F)c2n1 [SB408124] | 106.19% | 39.63% |  | fold-change in % MBP + oligodendrocytes (EpiSC-derived OPCs [2]; [3]): 4.44
Clc1ccc(C(Cn2ccnc2)OCc2csc3c(Cl)cccc23)c(Cl)c1 (stereo not drawn) [Sertaconazole nitrate] | 134.49% | 39.38% | 5.23 | 
Clc1ccc(CSC(Cn2ccnc2)c2ccc(Cl)cc2Cl)cc1 (stereo not drawn) [Sulconazole Nitrate] | 104.84% | 37.57% | 4.44 | 
CCN(CC)CCCCCCCCOC(=O)c1cc(OC)c(OC)c(OC)c1.Cl [TMB-8 hydrochloride] | 139.42% | 18.47% |  | fold-change in % MBP + oligodendrocytes (EpiSC-derived OPCs [2]; [3]): 3.89
O=C1Cc2cc(CCN3CCN(c4nsc5ccccc45)CC3)c(Cl)cc2N1 [Ziprasidone HCl] |  |  | 4.68 | % 0ligos (EpiSC-derived OPCs [2]; 2 μM, HCl): 34.10%; cell viability (% relative to DMS0) (EpiSC-derived OPCs [2]; 2 μM, HCl): 147.64%
O=C1Cc2cc(CCN3CCN(c4nsc5ccccc45)CC3)c(Cl)cc2N1 [Ziprasidone hydrochloride monohydrate] |  |  |  | % 0ligos (EpiSC-derived OPCs [2]; [4]): 32.78%; fold-change in % MBP + oligodendrocytes (EpiSC-derived OPCs [2]; 2 μM, relative to DMSO controls of the same plate, hydrochloride monohydrate): 3.71; cell viability (% relative to DMS0) (EpiSC-derived OPCs [2]; [4]): 116.11%
C=C(c1ccc(C(=O)O)cc1)c1cc2c(cc1C)C(C)(C)CCC2(C)C [bexarotene, Bexarotene] |  |  |  | sterol levels / sterol intermediate accumulation in OPCs (OPCs): minimal effects on sterol levels
CC(C)CCC[C@@H](C)[C@H]1CC[C@H]2[C@@H]3CC=C4C[C@@H](O)CC[C@]4(C)[C@H]3CC[C@]12C [cholesterol, Cholesterol] |  |  |  | formation of MBP+ oligodendrocytes from OPCs (EpiSC-derived OPCs [1]): ineffective
CC(C)=CCC[C@@H](C)[C@H]1CC[C@@]2(C)C3=C(CC[C@]12C)[C@@]1(C)CC[C@H](O)C(C)(C)[C@@H]1CC3 [lanosterol, Lanosterol] |  |  |  | formation of MBP+ oligodendrocytes from OPCs (EpiSC-derived OPCs [1]): enhanced formation of MBP+ oligodendrocytes in a dose-responsive fashion
N[C@@H](Cc1cc(I)c(Oc2ccc(O)c(I)c2)c(I)c1)C(=O)O [liothyronine, Liothyronine] |  |  |  | sterol levels / sterol intermediate accumulation in OPCs (OPCs): minimal effects on sterol levels
CC(C)CCC[C@@H](C)[C@H]1CC[C@H]2C3=C(CC[C@]12C)[C@@]1(C)CC[C@H](O)C[C@@H]1CC3 [zymostenol, Zymostenol] |  |  |  | formation of MBP+ oligodendrocytes from OPCs (EpiSC-derived OPCs [1]): enhanced the formation of MBP+ oligodendrocytes
(±)-Vesamicol | 112.02% | 34.23% |  | fold-change in % MBP + oligodendrocytes (EpiSC-derived OPCs [2]; [3]): 3.87
Varenicline tartrate | 144.02% | 22.86% |  | fold-change in % MBP + oligodendrocytes (EpiSC-derived OPCs [2]; [3]): 4.81
lsoconazole nitrate |  | 53.25% |  | fold-change in % MBP + oligodendrocytes (EpiSC-derived OPCs [2]; [3]): 6.70
